Laboratory results from patent publication US9776972B2, “Pyrazole derivatives as arginine methyltransferase inhibitors and uses thereof” (priority 2013, dated 2017).
Counter-ions that a name gives are not always drawn. Like-named read-outs stand apart in the source and are kept apart here.

What was measured:
[1] = target: human PRMT8 (Homo sapiens, UniProt Q9NR22); assay: PRMT8 Biochemical Assay (3H-SAM Flashplate, peptide substrate)
From the text: (§1) S-adenosylmethionine (SAM), S-adenosylhomocysteine (SAH), bicine, Tween20, dimethylsulfoxide (DMSO), bovine skin gelatin (BSG), isopropyl-β-D-thiogalactopyranoside (IPTG), and Tris(2-carboxyethyl)phosphine hydrochloride solution (TCEP) were purchased from Sigma-Aldrich at the highest level of purity possible. ^3H-SAM was purchase from American Radiolabeled Chemicals with a specific activity of 80 Ci/mmol. 384-well streptavidin Flashplates were purchased from PerkinElmer.
Peptide representative of human histone H4 residues 31-45 was synthesized with an N-terminal linker-affinity tag motif and a C-terminal amide cap by 21st Century Biochemicals.
E. coli (BL21(DE3) Gold, Stratagene) made competent by the CaCl2 method were transformed with the PRMT8 construct and ampicillin selection. Protein over-expression was accomplished by growing the PRMT8 expressing E. coli clone and inducing expression with 0.3 mM IPTG at 16° C. The culture was grown for 12 hours, harvested by centrifugation, and stored at −80° C. for purification.
GST-tagged PRMT8 was eluted with 50 mM Tris, 2 mM glutathione, pH 7.8. Pooled fractions were cleaved by thrombin (10 U) and dialysed in buffer A. GST was removed by reloading the cleaved protein sample onto glutathione sepharose column and PRMT8 was collected in the flow-through fractions. PRMT8 was purified further by ceramic hydroxyapatite chromatography. The column was washed with 50 mM phosphate buffer, 100 mM NaCl, 5% glycerol, 5 mM β-mercaptoethanol, pH 7.8 and PRMT8 was eluted by 100 mM phosphate in the same buffer. Protein was concentrated and buffer was exchanged to 50 mM Tris, 300 mM NaCl, 10% glycerol, 5 mM β-mercaptoethanol, pH 7.8 by ultrafiltration.
General Procedure for PRMT8 Enzyme Assays on Peptide Substrates.
(§2) The assays were all performed in a buffer consisting of 20 mM Bicine (pH=7.6), 1 mM TCEP, 0.005% BSG, and 0.002% Tween 20, prepared on the day of use. […] DMSO (1 ul) was added to Columns 11, 12, 23, 24, rows A-H for the maximum signal control and 1 ul of SAH, a known product and inhibitor of PRMT8, was added to columns 11, 12, 23, 24, rows I-P for the minimum signal control. A cocktail (40 ul) containing the PRMT8 enzyme was added by Multidrop Combi (Thermo-Fisher). The compounds were allowed to incubate with PRMT8 for 30 min at room temperature, then a cocktail (10 ul) containing ^3H-SAM and peptide was added to initiate the reaction (final volume=51 ul). […] The assays were stopped by the addition of non-radiolabeled SAM (10 ul) to a final concentration of 400 uM, which dilutes the ^3H-SAM to a level where its incorporation into the peptide substrate is no longer detectable. 50 ul of the reaction in the 384-well polypropylene plate was then transferred to a 384-well Flashplate and the biotinylated peptides were allowed to bind to the streptavidin surface for at least 1 hour before being washed once with 0.1% Tween20 in a Biotek ELx405 plate washer. The plates were then read in a PerkinElmer TopCount plate reader to measure the quantity of ^3H-labeled peptide bound to the Flashplate surface, measured as disintegrations per minute (dpm) or alternatively, referred to as counts per minute (cpm).
(§3) Where dpm=disintegrations per minute, cmpd=signal in assay well, and min and max are the respective minimum and maximum signal controls.
(§4) Where top and bottom are the normally allowed to float, but may be fixed at 100 or 0 respectively in a 3-parameter fit. The Hill Coefficient normally allowed to float but may also be fixed at 1 in a 3-parameter fit. Y is the % inhibition and X is the compound concentration.

[2] = target: T1, human PRMT6 (Homo sapiens, UniProt Q96LA8); assay: PRMT6 Biochemical Assay (3H-SAM Flashplate, peptide substrate)
T1 construct: Flag-PRMT6-His; made in house; host or cells: HEK 293F cells (BacMam baculovirus)
From the text: as §1, with “sodium butyrate” for “isopropyl-β-D-thiogalactopyranoside (IPTG),”
Peptide representative of human histone H4 residues 36-50 was synthesized with an N-terminal linker-affinity tag motif and a C-terminal amide cap by 21st Century Biochemicals.
The amplified gene was subcloned into pFastBacMam (Viva Biotech).
Recombinant baculovirus were generated according to Bac-to-Bac kit instructions (Life Technologies). […] Infections were carried out at 37° C. for 48 hours, harvested by centrifugation, and stored at −80° C. for purification.
Column was washed with 20 mM imidazole in the same buffer and Flag-PRMT6-His was eluted with 150 mM imidazole. […] Flag-PRMT6-His was eluted with 200 ug/ml FLAG peptide in the same buffer. Pooled fractions were dialysed in 20 mM Tris, 150 mM NaCl, 10% glycerol and 5 mM β-mercaptoethanol, pH 7.8.
General Procedure for PRMT6 Enzyme Assays on Peptide Substrates.
as §2, with “of PRMT6,” for “of PRMT8,”, “the PRMT6” for “the PRMT8”, “with PRMT6” for “with PRMT8”, “containing SAM” for “containing ^3H-SAM”
as §3, §4

[3] = single experiment or average of multiple experiments
[4] = Biochemical IC50 PRMT6, single experiment or average of multiple experiments

Sequence of human PRMT8 (Q9NR22 whole entry): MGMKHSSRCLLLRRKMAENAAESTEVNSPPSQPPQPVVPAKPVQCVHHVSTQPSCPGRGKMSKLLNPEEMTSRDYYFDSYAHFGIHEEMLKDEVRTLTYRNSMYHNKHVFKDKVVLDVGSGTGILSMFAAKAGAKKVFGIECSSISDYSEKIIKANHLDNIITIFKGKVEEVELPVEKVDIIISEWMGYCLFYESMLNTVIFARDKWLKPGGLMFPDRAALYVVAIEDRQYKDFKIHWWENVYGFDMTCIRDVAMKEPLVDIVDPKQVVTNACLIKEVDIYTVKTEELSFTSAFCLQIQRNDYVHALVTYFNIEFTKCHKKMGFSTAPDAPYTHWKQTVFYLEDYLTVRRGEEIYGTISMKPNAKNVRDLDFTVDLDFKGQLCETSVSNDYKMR
T1 sequence (Q96LA8 with tags, fused parts or gaps): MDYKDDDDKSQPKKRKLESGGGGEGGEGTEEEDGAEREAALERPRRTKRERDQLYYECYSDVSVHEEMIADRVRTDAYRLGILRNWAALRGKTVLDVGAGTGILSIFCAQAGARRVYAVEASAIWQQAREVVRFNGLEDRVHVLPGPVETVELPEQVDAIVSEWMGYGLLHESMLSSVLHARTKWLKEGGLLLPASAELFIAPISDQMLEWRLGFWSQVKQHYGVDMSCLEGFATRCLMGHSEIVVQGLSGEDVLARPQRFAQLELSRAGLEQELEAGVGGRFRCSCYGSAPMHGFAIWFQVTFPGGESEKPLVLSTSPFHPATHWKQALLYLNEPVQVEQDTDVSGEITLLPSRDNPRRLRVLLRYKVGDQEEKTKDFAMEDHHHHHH

| IC50 [1, 3] | IC50 [2, 4] | IC50 [1] | IC50 ([2]; Biochemical IC50 PRMT6) | SMILES |
| --- | --- | --- | --- | --- |
| 1 µM | 0.00949 µM | – | – | Cc1ccc(-c2n[nH]cc2CN(C)CCN)c(F)c1 [Compound 108] |
| 0.171 µM | 0.00709 µM | – | – | CN(CCN)Cc1c[nH]nc1-c1ccc(OCC(F)(F)F)cc1 [Compound 96] |
| 0.0141 µM | 0.0131 µM | < 0.1 µM | < 0.1 µM | CC[C@@H](C)Oc1ccc(-c2n[nH]cc2CN(C)CCNC)cc1 [Compound 308] |
| 0.0106 µM | 0.0115 µM | < 0.1 µM | < 0.1 µM | CCC(CC)Oc1ccc(-c2n[nH]cc2CN(C)CCNC)cc1 [Compound 290] |
| 0.13 µM | 0.0556 µM | – | – | CN(CCN)Cc1n[nH]cc1-c1ccc(OC(F)(F)F)cc1 [Compound 105] |
| 0.0163 µM | 0.0269 µM | < 0.1 µM | < 0.1 µM | CNCCN(C)Cc1c[nH]nc1-c1ccc(OCC2CC2)c(F)c1 [Compound 298] |
| 0.0902 µM | 0.0405 µM | < 0.1 µM | < 0.1 µM | CNCCN(C)Cc1c[nH]nc1-c1ccc(OCC2CCOCC2)cc1 [Compound 284] |
| 0.0576 µM | 0.033 µM | < 0.1 µM | < 0.1 µM | CNCCN(C)Cc1c[nH]nc1-c1ccc(NCC(C)C)cc1 [Compound 296] |
| 0.131 µM | 0.0445 µM | – | – | CN(CCN)Cc1n[nH]cc1-c1ccc(OC(F)F)cc1 [Compound 138] |
| 0.232 µM | 0.00494 µM | – | – | Cc1ccc(-c2n[nH]cc2CN(C)CCN)cc1Cl [Compound 126] |
| 2.08 µM | 0.217 µM | – | – | COc1ccccc1-c1n[nH]cc1CN(C)CCN [Compound 109] |
| 0.0601 µM | 0.113 µM | < 0.1 µM | 0.101 to 1 µM | CNCCN(C)Cc1c[nH]nc1-c1ccc(C(C)(C)COC)cc1 [Compound 313] |
| 0.799 µM | 0.0118 µM | – | – | CN(CCN)Cc1c[nH]nc1-c1cc(F)cc(F)c1 [Compound 111] |
| 1.1 µM | 0.0254 µM | – | – | CC(O)c1ccc(-c2n[nH]cc2CN(C)CCN)cc1 (centres unmarked) [Compound 115] |
| – | 0.312 µM | – | – | COCCn1ncc(CN(C)CCN)c1-c1ccc(F)cc1 [Compound 6] |
| 0.0235 µM | 0.0253 µM | < 0.1 µM | < 0.1 µM | CNCCN(C)Cc1c[nH]nc1-c1ccc(OC2CC2)c(F)c1 [Compound 301] |
| 0.645 µM | 0.0634 µM | – | – | COc1cccc(-c2n[nH]cc2CN(C)CCN)c1 [Compound 130] |
| 0.305 µM | 0.00779 µM | – | – | CN(CCN)Cc1c[nH]nc1-c1ccc(C(F)(F)F)c(F)c1 [Compound 141] |
| 0.123 µM | 0.0497 µM | 0.101 to 1 µM | < 0.1 µM | CNCCN(C)Cc1c[nH]nc1-c1ccc(Oc2ncccn2)cc1 [Compound 302] |

| IC50 [1, 3] | IC50 [2, 4] | IC50 [1] | IC50 ([2]; Biochemical IC50 PRMT6) | SMILES |
| --- | --- | --- | --- | --- |
| 0.36 µM | 0.0121 µM | – | – | Cc1cccc(-c2n[nH]cc2CN(C)CCN)c1 [Compound 131] |
| 0.273 µM | 0.0162 µM | – | – | COc1cc(-c2n[nH]cc2CN(C)CCN)ccc1F [Compound 142] |
| 0.0509 µM | 0.0503 µM | < 0.1 µM | < 0.1 µM | CNCCN(C)Cc1c[nH]nc1-c1ccc(OC(COC)C(C)C)cc1 (centres unmarked) [Compound 311] |
| 0.156 µM | 0.0154 µM | – | – | CN(CCN)Cc1c[nH]nc1-c1ccc(C2CCOCC2)cc1 [Compound 98] |
| 8.27 µM | 3.01 µM | – | – | CN(CCN)Cc1c[nH]nc1-c1ccccc1C#N [Compound 140] |
| 0.336 µM | 0.088 µM | – | – | CN(CCN)Cc1n[nH]cc1-c1ccc(OC2CC2)cc1 [Compound 119] |
| 0.335 µM | 0.0847 µM | – | – | CC(=O)c1cccc(-c2n[nH]cc2CN(C)CCN)c1 [Compound 112] |
| 7.2 µM | 0.287 µM | – | – | CCn1cc(CN(C)CCNC)c(-c2ccc(F)cc2)n1 [Compound 8] |
| 0.0647 µM | 0.177 µM | < 0.1 µM | 0.101 to 1 µM | CNCCN(C)Cc1c[nH]nc1-c1ccc(N(C)C(C)C)cc1 [Compound 300] |
| 0.124 µM | 0.0073 µM | – | – | CN(CCN)Cc1c[nH]nc1-c1ccc(C2CC2)cc1 [Compound 116] |
| 1.32 µM | 0.0289 µM | – | – | CN(CCN)Cc1c[nH]nc1-c1ccc(C(F)(F)F)cc1Cl [Compound 135] |
| 0.014 µM | 0.0197 µM | < 0.1 µM | < 0.1 µM | CNCCN(C)Cc1c[nH]nc1-c1ccc(OCC2CCC2)cc1 [Compound 307] |
| 0.00668 µM | 0.0121 µM | < 0.1 µM | < 0.1 µM | CNCCN(C)Cc1c[nH]nc1-c1ccc(Oc2ccccc2)c(F)c1 [Compound 297] |
| 0.0142 µM | 0.0143 µM | < 0.1 µM | < 0.1 µM | CNCCN(C)Cc1c[nH]nc1-c1ccc(OCC2CC2)cc1 [Compound 288] |
| 0.311 µM | 0.00902 µM | – | – | CN(CCN)Cc1n[nH]cc1-c1ccc(Cl)cc1 [Compound 102] |
| 0.99 µM | 0.0528 µM | – | – | Cc1c(F)cccc1-c1n[nH]cc1CN(C)CCN [Compound 129] |
| 0.251 µM | 0.0108 µM | – | – | COc1ccc(-c2n[nH]cc2CN(C)CCN)cc1F [Compound 134] |
| 0.11 µM | 0.0386 µM | 0.101 to 1 µM | < 0.1 µM | CNCCN(C)Cc1c[nH]nc1-c1ccc(OC(COC)CC(C)C)cc1 (centres unmarked) [Compound 314] |

| SMILES | IC50 [1, 3] | IC50 [2, 4] | IC50 [1] | IC50 ([2]; Biochemical IC50 PRMT6) |
| --- | --- | --- | --- | --- |
| CC(C)Oc1ccc(-c2n[nH]cc2CN(C)CCN)cc1F [Compound 97] | 0.089 µM | 0.00735 µM | – | – |
| COc1ccc(-c2n[nH]cc2CN(C)CCN)cc1Cl [Compound 125] | 0.308 µM | 0.00665 µM | – | – |
| CNCCN(C)Cc1cnn(C)c1-c1ccc(OC(C)C)cc1 [Compound 244, hydrochloride] | – | 0.0451 µM | – | < 0.1 µM |
